This is an account of results in patent publication US10266489B2, “Pyrrolic amide compound and preparation method and application thereof” (HitGen LTD, priority 2014, dated 2019).

Molecules are shown by their SMILES.

Assay [1] has as its target T1, histone deacetylase 6 (HDAC6) (Homo sapiens, UniProt Q9UBN7).
T1 construct: purchased BPS Bioscience 50076
T1 sequence (Q9UBN7 1-1215): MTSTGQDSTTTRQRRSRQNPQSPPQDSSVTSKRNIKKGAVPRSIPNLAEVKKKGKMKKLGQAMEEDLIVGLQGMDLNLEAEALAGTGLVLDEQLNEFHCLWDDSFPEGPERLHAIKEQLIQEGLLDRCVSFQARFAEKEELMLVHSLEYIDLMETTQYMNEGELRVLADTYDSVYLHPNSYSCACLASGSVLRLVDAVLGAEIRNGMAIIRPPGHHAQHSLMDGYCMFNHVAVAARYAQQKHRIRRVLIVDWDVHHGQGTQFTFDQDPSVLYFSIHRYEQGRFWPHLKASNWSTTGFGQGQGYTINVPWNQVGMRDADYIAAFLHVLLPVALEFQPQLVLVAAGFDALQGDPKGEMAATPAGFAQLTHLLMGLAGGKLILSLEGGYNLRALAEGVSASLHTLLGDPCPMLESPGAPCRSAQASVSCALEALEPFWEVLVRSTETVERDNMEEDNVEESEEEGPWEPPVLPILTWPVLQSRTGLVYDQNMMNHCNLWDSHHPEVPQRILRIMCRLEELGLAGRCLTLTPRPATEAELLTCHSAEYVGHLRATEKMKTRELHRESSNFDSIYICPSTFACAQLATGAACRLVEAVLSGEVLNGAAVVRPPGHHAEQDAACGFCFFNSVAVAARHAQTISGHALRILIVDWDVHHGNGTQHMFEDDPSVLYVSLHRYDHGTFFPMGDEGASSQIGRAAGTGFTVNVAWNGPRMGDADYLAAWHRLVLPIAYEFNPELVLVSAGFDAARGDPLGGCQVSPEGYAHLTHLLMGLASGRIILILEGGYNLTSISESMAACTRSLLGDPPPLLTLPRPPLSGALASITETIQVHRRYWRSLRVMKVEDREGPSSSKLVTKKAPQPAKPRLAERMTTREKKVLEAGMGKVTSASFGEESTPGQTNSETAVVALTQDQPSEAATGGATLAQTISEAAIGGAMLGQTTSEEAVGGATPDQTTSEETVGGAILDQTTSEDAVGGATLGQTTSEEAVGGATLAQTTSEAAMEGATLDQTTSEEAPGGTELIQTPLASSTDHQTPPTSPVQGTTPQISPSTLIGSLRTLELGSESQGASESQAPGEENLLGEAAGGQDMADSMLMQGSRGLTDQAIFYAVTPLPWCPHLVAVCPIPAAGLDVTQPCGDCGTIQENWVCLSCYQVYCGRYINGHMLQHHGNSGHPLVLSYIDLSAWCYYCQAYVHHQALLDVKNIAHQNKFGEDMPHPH
Put plainly: Detection of enzyme viability of histone deacetylase 6 (fluorogenic substrate deacetylation). The assay is classed as biochemical. The following applies: 0.35 ng/μL HDAC 6, 20 μM substrate, 37° C. An excerpt: HDAC inhibitory viabilities of the compounds in the present invention are detected in detection of substrate deacetylation.
A: Detection of enzyme viability of histone deacetylase 6 (#50076, BPS Bioscience):
Acetyl of HDAC 6 on a substrate is removed, so that the substrate is activated and can be affected by a subsequently added developing solution, and fluorophore is released. The size of a fluorescence signal reflects the viability of the HDAC 6. An IC50 detection method of the enzyme is disclosed in Chuping Xu, Elisabetta Soragni improved Histone Deacetylase Inhibitors as Therapeutics for the Neurdegenerative DiseaseEriedreich's Ataxia: A New Synthetic Route. A total reaction system (100 μL/well) contains 0.35 ng/μL of HDAC 6, 20 μM of substrate and compounds of different concentrations. The fluorescence signal is measured within 30 minutes after incubation at a temperature of 37° C., inhibitory effects of the compounds are determined from the obtained data and mapped with the compound concentrations to obtain a concentration response curve, and the IC50 value is fitted according to a four-parameter model.
The compounds 1-19 prepared in the embodiments are subjected to detection of enzyme viability of histone deacetylase 6 (i.e., HDAC6) according to the method above. Test results are shown in Table 2, wherein the measured IC50 values of the compounds are classified as specified, as shown in Table 2: […]

Assay [2] deals with HepG2 cells. Put plainly: Determination of cell growth inhibition, CCK-8, HepG2. The assay is classed as cell-based. Particulars: Homo sapiens, HepG2 hepatoma cells, 72 hours, highest measured IC50 of single or multiple operations. From the text:
(§1) Test example 2 Cell determination-determination of cell growth inhibition Materials and reagents HepG2 cell strains, Hep3B cell strains, Huh7 cell strains and Li7 cell strains are purchased from Shanghai Institutes for Biological Sciences of Chinese Academy of Sciences; DMEM high glucose media and MEM media are purchased from Hyclone; fetal calf serum is purchased from Gibco Company; trypsin is purchased from Invitrogen Shanghai; CCK-8 kits are purchased from Beyotime Institute of Biotechnology; and other consumables such as cell-culture dishes and the like are purchased from Corning China. […]
(§2) comprising the steps: digesting HepG2 cells, Hep3B Huh7 cells and Li7 cells in logarithmic phases by using the trypsin; after counting the cells by taking uniform cell suspension, adjusting cell density to 1500 cells/pore by using a culture medium containing 10% of serum, and re-inoculating into a 96-pore cell culture plate, wherein the culture volume is 200 μL; incubating in a 5% CO2 incubator at a temperature of 37° C.; and culturing for 24 hours for experiments. […]
(§3) comprising the steps: taking the cells cultured for 24 hours from the incubator, sucking culture solution in the pore plate, adding 200 μL of compound solution prepared by using a culture medium containing 10% of the fetal calf serum into each pore, enabling five pores of each concentration to be parallel, setting DMSO at negative control, and incubating in the 5% CO2 incubator at a temperature of 37° C. for 72 hours for performing CCK-8 detection. […]
(§4) comprising the steps: taking a serum-free medium and a CCK-8 solution, and preparing a CCK-8 working solution according to a ratio of 10:1 (the process needs to be protected from light); taking the cells cultured for 72 hours from the incubator, sucking culture solution in the pore plate, adding 120 μL of the CCK-8 working solution into each pore, adding 120 μL of the CCK-8 working solution into a cell-free pore plate to serve as blank control, and incubating in the 5% CO2 incubator at a temperature of 37° C. for one hour (the process needs to be protected from light ); and […]
(§5) taking the pore plate from the incubator, sucking 100 μL of solution from each pore into a new 96-pore plate, and reading absorbancy at 450 nm (the process needs to he protected from light).
(§6) Tx: absorbancy measured in CCK-8 within 72 hours after compound effect
(§7) C: absorbancy measured m CCK-8 within 72 hours after culturing in negative control pores B: absorbancy measured CCK-8 in blank control pores
(§8) The compounds 1-19 prepared in the embodiments are operated in the above determination, and test results are shown in Table 3, wherein the highest measured IC50 values of the various compounds during single or multiple operations are classified as specified, as shown in Table 3: […]

Assay [3] deals with Huh7 cells. Put plainly: Determination of cell growth inhibition, CCK-8, Huh-7. It counts as cell-based. The following applies: Homo sapiens, Huh-7 hepatoma cells, 72 hours, highest measured IC50 of single or multiple operations.
Text: as §1, §2, §3, §4, §5, §6, §7, §8

Assay [4] deals with Li7 cells. The assay can be described thus: Determination of cell growth inhibition, CCK-8, Li-7. The assay is classed as cell-based. Particulars: Li-7 hepatoma cells, 72 hours, highest measured IC50 of single or multiple operations.
Text: as §1, §2, §3, §4, §5, §6, §7, §8

Assay [5] concerns Hep3B cells. The assay can be described thus: Determination of cell growth inhibition, CCK-8, Hep3B. It counts as cell-based. Particulars: Homo sapiens, Hep3B hepatoma cells, 72 hours, highest measured IC50 of single or multiple operations.
Text: as §1, §2, §3, §4, §5, §6, §7, §8

On to `N#Cc1ccc(S(=O)(=O)N2CC=C(C(=O)NO)C2)cc1` [Compound 1, N-hydroxy-1-((4-benzene-cyano)sulfonyl) 2,5-dihydro-1H-pyrrole-3-formamide], for which the IC50 (usually the concentration that inhibits the measured activity by half) in assay [1] was 0.1 to 0.3 µM; in assay [2], above 10 µM; in assay [3] it was above 10 µM; in assay [4] it was above 10 µM; in assay [5], above 10 µM.

In the case of `O=C(NO)C1=CCN(S(=O)(=O)c2ccc(C(=O)O)cc2)C1` [Compound 7], the IC50 is below 0.1 µM in assay [1]; above 10 µM in assay [2]; above 10 µM in assay [3]; above 10 µM in assay [4]; above 10 µM in assay [5].

For the compound `CNC(=O)c1ccc(S(=O)(=O)N2CC=C(C(=O)NO)C2)cc1` [Compound 9, N-hydroxy-1-((4-(methylaminecarbonyl)phenyl)sulfonyl) 2,5-dihydro-1H-pyrrole-3-formamide], the IC50 in assay [1] was below 0.1 µM; in assay [2], above 10 µM; in assay [3] it was above 10 µM; in assay [4], above 10 µM; in assay [5] it was above 10 µM.

As for `CC(=O)Nc1ccc(S(=O)(=O)N2CC=C(C(=O)NO)C2)cc1` [Compound 10, N-hydroxy-1-((4-acetamido-phenyl)sulfonyl) 2,5-dihydro-1H-pyrrole-3-formamide], the IC50 in assay [1] is below 0.1 µM; in assay [2] it was above 10 µM; in assay [3] it was above 10 µM; in assay [4], above 10 µM; in assay [5], above 10 µM.

Regarding `O=C(NO)C1=CCN(S(=O)(=O)c2ccc(F)cc2)C1` [Compound 11, N-hydroxy-1-((4-fluoro-phenyl)sulfonyl) 2,5-dihydro-1H-pyrrole-3-formamide], the IC50 was below 0.1 µM in assay [1]; above 10 µM in assay [2]; above 10 µM in assay [3]; above 10 µM in assay [4]; above 10 µM in assay [5].

`O=C(NO)C1=CCN(S(=O)(=O)c2cccc(F)c2)C1` [Compound 12, N-hydroxy-1-((3-fluoro-phenyl)sulfonyl) 2,5-dihydro-1H-pyrrole-3-formamide]: the IC50 in assay [1] is below 0.1 µM; in assay [2], below 10 µM; in assay [3] it was above 10 µM; in assay [4], above 10 µM; in assay [5], above 10 µM.

Take `COc1ccc(S(=O)(=O)N2CC=C(C(=O)NO)C2)cc1` [Compound 13, N-hydroxy-1-((4-methoxy-phenyl)sulfonyl) 2,5-dihydro-1H-pyrrole-3-formamide]: the IC50 was below 0.1 µM in assay [1]; below 10 µM in assay [2]; above 10 µM in assay [3]; below 10 µM in assay [4]; below 10 µM in assay [5].

`COc1cccc(S(=O)(=O)N2CC=C(C(=O)NO)C2)c1` [Compound 14, N-hydroxy-1-((3-methoxy-phenyl)sulfonyl) 2,5-dihydro-1H-pyrrole-3-formamide]: the IC50 in assay [1] was below 0.1 µM; in assay [2] it was below 10 µM; in assay [3], above 10 µM; in assay [4], below 10 µM; in assay [5], below 10 µM.

With `Cc1ccc(S(=O)(=O)N2CC=C(C(=O)NO)C2)cc1` [Compound 15, N-hydroxy-1-((4-methylphenyl)sulfonyl)2,5-dihydro-1H-pyrrole-3-formamide], the half-inhibitory concentration (IC50) in assay [1] was below 0.1 µM; in assay [2], below 10 µM; in assay [3], above 10 µM; in assay [4], below 10 µM; in assay [5], below 10 µM.

With `Cc1cccc(S(=O)(=O)N2CC=C(C(=O)NO)C2)c1` [Compound 16, N-hydroxy-1-((3-methylphenyl)sulfonyl)2,5-dihydro-1H-pyrrole-3-formamide], the 50% inhibitory concentration (IC50) is below 0.1 µM in assay [1]; below 10 µM in assay [2]; above 10 µM in assay [3]; above 10 µM in assay [4]; above 10 µM in assay [5].

Turning to `COc1ccc(S(=O)(=O)N2CC=C(C(=O)NO)C2)cc1OC` [Compound 17, N-hydroxy-1-((3,4-dimethoxyphenyl)sulfonyl) 2,5-dihydro-1H-pyrrole-3-formamide], the IC50 was 0.1 to 0.3 µM in assay [1]; above 10 µM in assay [2]; above 10 µM in assay [3]; above 10 µM in assay [4]; above 10 µM in assay [5].

On to `O=C(NO)C1=CCN(S(=O)(=O)c2ccc(C3=CCNCC3)cc2)C1` [Compound 18, N-hydroxy-1-((4-(1,2,3,6-tetrahydro-pyridine-4-yl)phenyl)sulfonyl) 2,5-dihydro-1H-pyrrole-3-formamide], for which the IC50 in assay [1] was 0.1 to 0.3 µM; in assay [2] it was above 10 µM; in assay [3] it was above 10 µM; in assay [4], above 10 µM; in assay [5], above 10 µM.

In the case of `Nc1ccccc1NC(=O)C1=CCN(S(=O)(=O)c2ccccc2)C1` [Compound 19, N-(2-aminophenyl)-1-(benzenesulfonyl)-2,5-dihydro-1H-pyrrole-3-formamide], the IC50 in assay [1] was above 0.5 µM; in assay [2], above 10 µM; in assay [3], above 10 µM; in assay [4], above 10 µM; in assay [5], above 10 µM.
